Source: ChEMBL document CHEMBL5214900, “Design, Synthesis, and Biological Evaluation of Membrane-Active Bakuchiol Derivatives as Effective Broad-Spectrum Antibacterial Agents” (J Med Chem, 2021)
≈ marks a conversion by molar mass, not a printed value. Calls of active or inactive are those of the source. The calls are words filed in the database; no cut-off is given here.

Tests used:
Staphylococcus aureus [1] = assay: Antibacterial activity against Staphylococcus aureus ATCC 29213 assessed as eradication of preformed bacterial biofilm by measuring residual biofilm viability at 6.25 ug/ml incubated for 24 hrs by crystal violet staining based assay relative to control; format: functional; conditions: dose 6.25 µg/ml
Staphylococcus aureus [2] = assay: Antibacterial activity against Staphylococcus aureus ATCC 29213 assessed as fold increase in MIC incubated for 24 hrs in presence of 2.5 mM Ca2+ by CLSI based broth dilution method; format: functional
Staphylococcus aureus [3] = assay: Antibiofilm activity against Staphylococcus aureus ATCC 29213 assessed reduction in biofilm formation at 0.78 ug/ml measured after 24 hrs by crystal violet staining based assay relative to control; format: functional; design: scale not given: the % may be the effect or the level left; conditions: dose 0.78 µg/ml
Escherichia coli [4] = assay: Antibacterial activity against Escherichia coli ATCC 25922 assessed as fold increase in MIC incubated for 24 hrs in presence of 4.5 mM K+ by CLSI based broth dilution method; format: functional
Escherichia coli [5] = assay: Antibiofilm activity against Escherichia coli ATCC 25922 assessed reduction in biofilm formation at 0.78 ug/ml measured after 24 hrs by crystal violet staining based assay relative to control; format: functional; design: scale not given: the % may be the effect or the level left; conditions: dose 0.78 µg/ml
Acinetobacter baumannii [6] = assay: Antibacterial activity against Acinetobacter baumannii ATCC 17978 assessed as fold increase in MIC incubated for 24 hrs in presence of 140 mM Na+ by CLSI based broth dilution method; format: functional
Escherichia coli [7] = assay: Bactericidal activity against Escherichia coli ATCC 25922 assessed as log reduction in viable bacteria at 4 times MIC measured after 2 hrs by time-killing assay; format: functional
Cell membrane [8] = assay: Disruption of membrane integrity in Pseudomonas aeruginosa ATCC 9027 assessed as increase in red fluorescence intensity at 8 times MIC incubated for 2 hrs by SYTO 9/PI staining based fluorescence analysis; format: subcellular
Pseudomonas aeruginosa [9] = assay: Induction of cell death in Pseudomonas aeruginosa ATCC 9027 assessed as residual living cells at 8 times MIC incubated for 2 hrs by SYTO 9/PI staining based fluorescence analysis relative to control; format: functional
Escherichia coli [10] = assay: Antibacterial activity against Escherichia coli ATCC 25922 assessed as eradication of preformed bacterial biofilm by measuring residual biofilm viability at 12.5 ug/ml incubated for 24 hrs by crystal violet staining based assay relative to control; format: functional; conditions: dose 12.5 µg/ml
Lipopolysaccharide (LPS) = assay: Displacement of BODIPY-TR-cadaverine from Escherichia coli Lipopolysaccharide at 8 times MIC measured for 30 mins by fluorescence based microplate reader assay relative to control
Pseudomonas aeruginosa [11] = assay: Antibacterial activity against Pseudomonas aeruginosa ATCC 9027 assessed as inhibition of bacterial growth incubated for 24 hrs by CLSI based broth dilution method; format: functional
Acinetobacter baumannii [12] = assay: Antibacterial activity against Acinetobacter baumannii ATCC 17978 assessed as inhibition of bacterial growth incubated for 24 hrs by CLSI based broth dilution method; format: functional
Staphylococcus aureus [13] = assay: Antibacterial activity against Staphylococcus aureus ATCC 29213 assessed as eradication of preformed bacterial biofilm by measuring residual biofilm viability at 3.125 ug/ml incubated for 24 hrs by crystal violet staining based assay relative to control; format: functional; conditions: dose 3.125 µg/ml
Cell membrane [14] = assay: Disruption of membrane integrity in Pseudomonas aeruginosa ATCC 9027 assessed as increase in fluorescence intensity at 1 to 8 times MIC by SYTOX green dye based fluorescence analysis; format: subcellular; conditions: DDE = dose-dependent effect
Staphylococcus aureus [15] = assay: Antibiofilm activity against Staphylococcus aureus ATCC 29213 assessed reduction in biofilm formation at 3.125 ug/ml measured after 24 hrs by crystal violet staining based assay relative to control; format: functional; design: scale not given: the % may be the effect or the level left; conditions: dose 3.125 µg/ml
Staphylococcus aureus [16] = assay: Bactericidal activity against Staphylococcus aureus ATCC 29213 assessed as bacterial killing at 8 times MIC measured after 8 hrs by time-killing assay relative to control; format: functional
Escherichia coli [17] = assay: Antibacterial activity against Escherichia coli ATCC 25922 assessed as eradication of preformed bacterial biofilm by measuring residual biofilm viability at 3.125 ug/ml incubated for 24 hrs by crystal violet staining based assay relative to control; format: functional; conditions: dose 3.125 µg/ml

Compound: C=C[C@@](C)(/C=C/c1ccc(OCCCCN(CCCN(C)C)CCCN(C)C)cc1)CCC=C(C)C
- Activity (Staphylococcus aureus [1]): 34.11%
- fold change (FC) (Staphylococcus aureus [2]): <2
- Activity (Staphylococcus aureus [3]): 12.91%
- fold change (FC) (Escherichia coli [4]): <2
- Activity (Escherichia coli [5]): 8.71%
- fold change (FC) (Acinetobacter baumannii [6]): <2
- log(activity) (Escherichia coli [7]): 4.28
- Activity (Cell membrane [8]): Active
- Activity (Pseudomonas aeruginosa [9]): 0.3%
- Activity (Escherichia coli [10]): 10.78%
- Activity (Lipopolysaccharide (LPS)): 85.6%
- MIC (Pseudomonas aeruginosa [11]): 3.12 µg/mL (≈ 6.28 µM)
- MIC (Acinetobacter baumannii [12]): 3.12 µg/mL (≈ 6.28 µM)
- Activity (Staphylococcus aureus [13]): 52.49%
- Activity (Cell membrane [14]): Dde
- Activity (Staphylococcus aureus [15]): 96.53%
- Activity (Staphylococcus aureus [16]): >=99.9%
- Activity (Escherichia coli [17]): 49.85%
